According to US7056940B2, “Insecticidal 3-(2,6-disubstituted phenyl)-5-[5-arylthien-2-yl]-1,2,4-triazoles” (Dow AgroSciences LLC, priority 2001, dated 2006):

Key:
Type in all cases: in vivo
[1] = test system: Two-spotted Spider Mite (Tetranychus urticae); experiment: Insecticidal test for two-spotted spider mite, ovicide method; design: key: A: 90–100; B: 80–89; C: 70–79; D: 60–69; E: 50–59; F: less than 50; G: Inactive; conditions: cotton leaf discs, 6 days
Description: Insecticidal Test for Two-spotted Spider Mite (Tetranychus urticae)
Ten adult female two-spotted spider mites were placed on eight 2.2 cm leaf discs of cotton leaf, allowed to oviposit over 24 hours, and thereafter removed. […] Discs were placed on an agar substrate and held at 24° C. and 90% RH for 6 days.

[2] = test system: Cabbage Looper (Trichoplusia ni); experiment: Insecticidal test for cabbage looper, treated cabbage leaf disc; design: key: A: 90–100; B: 80–89; C: 70–79; D: 60–69; E: 50–59; F: less than 50; G: Inactive; conditions: cabbage leaf-dip, 2nd instar larvae, 5 days
Excerpt: (§1) The compounds are useful for reducing populations of insects and mites and are useful in a method of inhibiting an insect or mite population which comprises applying to a locus of the insect or mite an effective insect- or mite-inactivating amount of a compound of formula (1). The “locus” of insects or mites is a term used herein to refer to the environment in which the insects or mites live or where their eggs are present, including the air surrounding them, the food they eat, or objects which they contact. For example, insects or mites which eat or contact edible or ornamental plants can be controlled by applying the active compound to plant parts such as the seed, seedling, or cutting which is planted, the leaves, stems, fruits, grain, or roots, or to the soil in which the roots are growing. It is contemplated that the compounds might also be useful to protect textiles, paper, stored grain, seeds, domesticated animals, buildings or human beings by applying an active compound to or near such objects. The term “inhibiting an insect or mite” refers to a decrease in the numbers of living insects or mites, or a decrease in the number of viable insect or mite eggs. The extent of reduction accomplished by a compound depends, of course, upon the application rate of the compound, the particular compound used, and the target insect or mite species. At least an inactivating amount should be used. The terms “insect-inactivating amount” and “mite-inactivating amount” are used to describe the amount, which is sufficient to cause a measurable reduction in the treated insect or mite population. Generally an amount in the range from about 1 to about 1000 ppm by weight active compound is used. For example, insects and mites which can be inhibited include, but are not limited to: • Lepidoptera—Heliothis spp., Helicoverpa spp., Spodoptera spp., Mythimna unipuncta, Agrotis ipsilon, Earias spp., Euxoa auxiliaris, Trichoplusia ni, Anticarsia gemmatalis, Rachiplusia nu, Plutella xylostella, Chilo spp., Scirpophaga incertulas, Sesamia inferens, Cnaphalocrocis medinalis, Ostrinia nubilalis, Cydia pomonella, Carposina niponensis, Adoxophyes orana, Archips argyrospilus, Pandemis heparana, Epinotia aporema, Eupoecilia ambiguella, Lobesia botrana, Polychrosis viteana, Pectinophora gossypiella, Pieris rapae, Phyllonorycter spp., Leucoptera malifoliella, Phyllocnisitis citrella • Coleoptera—Diabrotica spp., Leptinotarsa decemlineata, Oulema oryzae, Anthonomus grandis, Lissorhoptrus oryzophilus, Agriotes spp., Melanotus communis, Popillia japonica, Cyclocephala spp., Tribolium spp. • Homoptera—Aphis spp., Myzus persicae, Rhopalosiphum spp., Dysaphis plantaginea, Toxoptera spp., Macrosiphum euphorbiae, Aulacorthum solani, Sitobion avenae, Metopolophium dirhodum, Schizaphis graminum, Brachycolus noxius, Nephotettix spp., Nilaparvata lugens, Sogatella furcifera, Laodelphax striatellus, Bemisia tabaci, Trialeurodes vaporariorum, Aleurodes proletella, Aleurothrixus floccosus, Quadraspidiotus perniciosus, Unaspis yanonensis, Ceroplastes rubens, Aonidiella aurantii • Hemiptera—Lygus spp., Eurygaster maura, Nezara viridula, Piezodorus guildingi, Leptocorisa varicornis • Thysanoptera—Frankliniella occidentalis, Thrips spp., Scirtothrips dorsalis • Isoptera—Reticulitermes flavipes, Coptotermes formosanus • Orthoptera—Blattella germanica, Blatta orientalis, Gryllotalpa spp. • Diptera—Liriomyza spp., Musca domestica, Aedes spp., Culex spp., Anopheles spp. • Hymenoptera—Iridomyrmex humilis, Solenopsis spp., Monomorium pharaonis, Atta spp., Pogonomyrmex spp., Camponotus spp. • Siphonaptera—Ctenophalides spp., Pulex irritans • Acarina—Tetranychus spp., Panonychus spp., Eotetranychus carpini, Phyllocoptruta oleivora, Aculus pelekassi, Brevipalpus phoenicis, Boophilus spp., Dermacentor variabilis, Rhipicephalus sanguineus, Amblyomma americanum, Ixodes spp., Notoedres cati, Sarcoptes scabiei, Dermatophagoides spp. […]

[3] = test system: Tobacco Budworm (Heliothis virescens); experiment: Insecticidal test for tobacco budworm, treated cotton cotyledon leaf disc; design: key: A: 90–100; B: 80–89; C: 70–79; D: 60–69; E: 50–59; F: less than 50; G: Inactive; conditions: cotton cotyledon leaf-dip, 2nd instar larvae, 5 days
Excerpt: as §1

[4] = test system: Beet Armyworm (Spodoptera exigua); experiment: Insecticidal test for beet armyworm, treated lepidopteran diet; design: key: A: 90–100; B: 80–89; C: 70–79; D: 60–69; E: 50–59; F: less than 50; G: Inactive; conditions: on diet surface, second-instar larvae, 5 days
Excerpt: as §1

[5] = test system: Cotton Aphid (Aphis gossypii); experiment: Insecticidal test for cotton aphid, spray on infested squash cotyledons; conditions: 50 ppm spray, 3 days
Description: Insecticidal Test for Cotton Aphid (Aphis gossypii)
To prepare spray solutions, 1 mg of each test compound was dissolved into 1 mL of a 90:10 acetone:ethanol solvent. This 1 mL of chemical solution was added to 19 mL of water containing 0.05% Tween 20 surfactant to produce a 50 ppm spray solution.
Squash cotyledons were infested with cotton aphid (all life stages) 16–20 hours prior to application of spray solution. The solution was sprayed on both sides of each infested squash cotyledon (0.5 mL×2 each side) with a sweeping action until runoff. The plants were allowed to air dry and held for 3 days in a controlled room at 26° C. and 40% RH after which time the test was graded. Grading was by actual count using a dissecting microscope and comparison of test counts to the untreated check. Results are given in Tables 1–4 as percent control based on population reduction versus the untreated.

[6] = test system: Sweetpotato Whitefly (Bemisia tabacia); experiment: Insecticidal test for sweetpotato whitefly, spray on cotton plants; design: key: A: 90–100; B: 80–89; C: 70–79; D: 60–69; E: 50–59; F: less than 50; G: Inactive; conditions: 200 ppm spray, 13 days, large nymphs
Description: Insecticidal Test for Sweetpotato Whitefly (Bemisia tabacia)
Four mg of each test compound was dissolved by adding 4 mL of a 90:10 acetone:ethanol solvent mixture to the vial containing the sample compound. This solution was added to 16 mL of water containing 0.05% Tween 20 surfactant to produce 20 mL of an 200 ppm spray solution.
Five-week-old cotton plants reared in a greenhouse were stripped of all foliage except for the two uppermost true leaves that were greater than 5 cm in diameter. These plants were then placed into a laboratory colony of whiteflies for two days for oviposition by the colony females. All whiteflies were then removed from the test plants with pressurized air. The spray solution was then applied to the test plants with a hand-held syringe fitted with hollow cone nozzle. One mL spray solution was applied to each leaf top and bottom for a total of 4 mL per plant. Four replications of each test compound utilized a total of 16 mL spray solution. Plants were air dried and then placed in a holding chamber (28° C. and 60% RH) for 13 days. Compound efficacy was evaluated by counting, under an illuminated magnifying glass, the number of large nymphs (3rd–4th instar) per leaf.
Percent control based on reduction of large nymphs of a test compound compared to solution-only (no test compound) sprayed plants is reported in Tables 1–4.

Compound | SM: activity against two-spotted spider mite (% control rating) [1] | CL: activity at 400 ppm against cabbage looper (% control rating) [2] | TBW: activity at 400 ppm against tobacco budworm (% control rating) [3] | BAW: activity at 400 ppm against beet armyworm (% control rating) [4] | CA: activity at 50 ppm against cotton aphid (% control rating) [5] | WF: activity at 200 ppm against whitefly (% control rating) [6]
Cc1cc(-c2ccc(OC(C)C)cc2)sc1-c1nc(-c2c(F)cccc2Cl)nn1C | A (90–100) | B (80–89) | G | D (60–69) | D (60–69) | 
Cc1c(-c2ccc(OC(F)(F)C(F)Br)cc2)csc1-c1nc(-c2c(F)cccc2Cl)nn1C (centres unmarked) | G | A (90–100) | B (80–89) | A (90–100) | A (90–100) | A (90–100)
CC(C)=COc1ccc(-c2scc(-c3nc(-c4c(F)cccc4Cl)nn3C)c2C)cc1 | A (90–100) | A (90–100) | F (less than 50) | A (90–100) | A (90–100) | A (90–100)
Cc1c(-c2nc(-c3c(F)cccc3Cl)nn2C)csc1-c1ccc(OC(F)(F)CF)cc1 | G | F (less than 50) | G | A (90–100) | A (90–100) | A (90–100)
CCCOc1ccc(-c2scc(-c3nc(-c4c(F)cccc4Cl)nn3C)c2C)cc1 | G | A (90–100) | G | A (90–100) | A (90–100) | A (90–100)
Cc1sc(-c2cccc(OC(F)(F)F)c2)cc1-c1nc(-c2c(F)cccc2Cl)nn1C | A (90–100) | A (90–100) | G | G | A (90–100) | F (less than 50)
Cn1nc(-c2c(F)cccc2Cl)nc1-c1sc(-c2ccc(OC(F)(F)C(F)Br)cc2)cc1Cl (centres unmarked) | C (70–79) | A (90–100) | A (90–100) | A (90–100) | E (50–59) | G
Cc1c(-c2nc(-c3c(F)cccc3Cl)nn2C)csc1-c1ccc(OC(F)(F)C(F)Cl)cc1 (centres unmarked) | A (90–100) | A (90–100) | A (90–100) | A (90–100) | B (80–89) | A (90–100)
Cc1c(-c2nc(-c3c(F)cccc3Cl)nn2C)csc1-c1ccc(OC(F)(F)C(F)F)cc1 | E (50–59) | A (90–100) | A (90–100) | A (90–100) | C (70–79) | A (90–100)
Cc1c(-c2nc(-c3c(F)cccc3Cl)nn2C)csc1-c1ccc(OC2CCCCO2)cc1 (centres unmarked) | F (less than 50) | F (less than 50) | F (less than 50) | A (90–100) | B (80–89) | F (less than 50)
Cc1sc(-c2ccc(C(F)(F)F)cc2F)c(C)c1-c1nc(-c2c(F)cccc2Cl)nn1C |  | A (90–100) | G | A (90–100) | B (80–89) | 
Cn1nc(-c2c(F)cccc2Cl)nc1-c1cc(-c2cccc(OC(F)(F)F)c2)sc1Cl | A (90–100) | A (90–100) | G | G | A (90–100) | G
Cc1c(-c2nc(-c3c(F)cccc3Cl)nn2C)csc1-c1ccc(SCF)cc1 |  | G | G | B (80–89) | B (80–89) | F (less than 50)
